The source of these data is US9695240B2, “Anthracycline derivative conjugates, process for their preparation and their use as antitumor compounds” (Genentech, Inc., priority 2008, dated 2017).

One data set has as its system SK-BR-3 cells. Kind of data set: CellTiter-Glo in vitro cell proliferation assay, SK-BR-3. It is filed as cell-based. The following applies: continuous exposure, 3 days. From the text: (§1) Cell-based in vitro assays may be used to measure viability, i.e. proliferation (IC50), cytotoxicity (EC50), and induction of apoptosis (caspase activation) of the ADC. The CellTiter-Glo® Luminescent Cell Viability Assay is a commercially available (Promega Corp., Madison, Wis.), homogeneous assay method based on the recombinant expression of Coleoptera luciferase (U.S. Pat. Nos. 5,583,024; 5,674,713; 5,700,670). This cell proliferation assay determines the number of viable cells in culture based on quantitation of the ATP present, an indicator of metabolically active cells (Crouch et al (1993) J. Immunol. Meth. 160:81-88; U.S. Pat. No. 6,602,677). The CellTiter-Glo® Assay is conducted in 96 well format, making it amenable to automated high-throughput screening (HTS) (Cree et al (1995) AntiCancer Drugs 6:398-404). The homogeneous assay procedure involves adding the single reagent (CellTiter-Glo® Reagent) directly to cells cultured in serum-supplemented medium. Cell washing, removal of medium and multiple pipetting steps are not required. The system detects as few as 15 cells/well in a 384-well format in 10 minutes after adding reagent and mixing.
(§2) The in vitro potency of antibody-drug conjugates was measured by a cell proliferation assay (FIGS. 8-29). The CellTiter-Glo® Luminescent Cell Viability Assay is a commercially available (Promega Corp., Madison, Wis.), homogeneous assay method based on the recombinant expression of Coleoptera luciferase (U.S. Pat. Nos. 5,583,024; 5674,713; 5,700,670). This assay determines the number of viable cells in culture based on quantitation of the ATP present, an indicator of metabolically active cells (Crouch et al (1993) J. Immunol. Meth. 160:81-88; U.S. Pat. No. 6,602,677). The CellTiter-Glo® Assay was conducted in 96 well format, making it amenable to automated high-throughput screening (HTS) (Cree et al (1995) AntiCancer Drugs 6:398-404). The homogeneous assay procedure involves adding the single reagent (CellTiter-Glo® Reagent) directly to cells cultured in serum-supplemented medium.
(§3) The homogeneous “add-mix-measure” format results in cell lysis and generation of a luminescent signal proportional to the amount of ATP present. The substrate, Beetle Luciferin, is oxidatively decarboxylated by recombinant firefly luciferase with concomitant conversion of ATP to AMP and generation of photons. Viable cells are reflected in relative luminescence units (RLU). Data can be recorded by luminometer or CCD camera imaging device. The luminescence output is presented as RLU, measured over time. Alternatively, photons from luminescence can be counted in a scintillation counter in the presence of a scintillant. The light units can be represented then as CPS—counts per second.
(§4) Efficacy of ADC were measured by a cell viability assay employing the following protocol, adapted from CellTiter Glo Luminescent Cell Viability Assay, Promega Corp. Technical Bulletin TB288 and Mendoza et al (2002) Cancer Res. 62:5485-5488: • 1. An aliquot of 50 μl of cell culture containing about 1000 or more cells, including: HER2-expressing and CD22-expressing cells, in medium was deposited in each well of a 96-well, opaque-walled, clear bottom plate. • 2. ADC (50 μl) was added to triplicate experimental wells to final concentration of 10 μg/mL, with “no ADC” control wells receiving medium alone, and incubated for 3 or more days. • 3. The plates were equilibrated to room temperature for approximately 30 minutes. • 4. CellTiter-Glo Reagent (100 μl) was added. • 5. The contents were mixed for 2 minutes on an orbital shaker to induce cell lysis. • 6. The plate was incubated at room temperature for 10 minutes to stabilize the luminescence signal. • 7. Luminescence was recorded and reported in graphs as RLU=relative luminescence units.
A general note: ATP-based viability assays read luminescence as a measure of living cells.

In another data set the test system is BT-474 cells. As to the kind of experiment: CellTiter-Glo in vitro cell proliferation assay, BT-474. To be noted: continuous exposure, 3 days. In kind it is cell-based.
Description: as §1, §2, §3, §4

The test system of data set [1] is doxorubicin-resistant (DoxRes) HER2 cells. As to the kind of experiment: CellTiter-Glo in vitro cell proliferation assay, doxorubicin-resistant HER2. In kind it is cell-based. To be noted: continuous exposure, 3 days.
Description: as §1, §2, §3, §4

The next data set relates to MCF7 cells. Kind of data set: CellTiter-Glo in vitro cell proliferation assay, MCF7. The following applies: continuous exposure, 3 days. In kind it is cell-based, human.
Description: as §1, §2, §3, §4

Data set [2] can be described thus: Stability of the conjugate in ammonium acetate buffer, HPLC. It is filed as physicochemical. To be noted: for % release of Compound IIA from the conjugate: 37° C., after four hours incubation. As for the experimental part:
Stability of the conjugates was studied using HPLC analysis. The conjugate was incubated in ammonium acetate buffers at pH 4 and 5.2 at 37° C. Each solution was then taken periodically and applied to an HPLC column using a method reported above. The amount of material released from the conjugate was determined and expressed as percent of released material.
To 0.5 mg of conjugate, ammonium acetate 5 mM pH=5.2 buffer solution (200 mL) was added. The solution was warmed at 37° C. and sample was taken periodically and analyzed by HPLC (method 2). Results are expressed as % of released material (8S,10S)-6,8,11-trihydroxy-8-(hydroxyacetyl)-1-methoxy-10-{[(1S,3R,4aS,9S,9aR,10aS)-9-methoxy-1-methyloctahydro-1H-pyrano[4′,3′:4,5][1,3]oxazolo[2,3-c][1,4]oxazin-3-yl]oxy}-7,8,9,10-tetrahydrotetracene-5,12-dione (Compound IIA) from the conjugate. […]

Another data set relates to tumor models. To be noted: cited from earlier work.

Take `COc1cccc2c1C(=O)c1c(O)c3c(c(O)c1C2=O)C[C@@](O)(/C(CO)=N/NC(=O)CCCCCN1C(=O)C=CC1=O)C[C@@H]3O[C@H]1C[C@H]2[C@H](O[C@@H]3[C@@H](OC)OCCN32)[C@H](C)O1` [Compound 52, 6-(2,5-dioxo-2,5-dihydro-1H-pyrrol-1-yl)-N′-{(1E)-2-hydroxy-1-[(2S,4S)-2,5,12-trihydroxy-7-methoxy-4-{[(1S,3R,4aS,9S,9aR,10aS)-9-methoxy-1-methyloctahydro-1H-pyrano[4′,3′:4,5][1,3]oxazolo[2,3-c][1,4]oxazin-3-yl]oxy}-6,11-dioxo-1,2,3,4,6,11-hexahydrotetracen-2-yl]ethylidene}hexanehydrazide]: the “SK-BR-3 in vitro cell viability at 3 days, anti-proliferative activity in words” value (“SK-BR-3 in vitro cell viability” below) in the data set on SK-BR-3 cells is “less potent than free Ant”. The “BT-474 in vitro cell viability at 3 days, anti-proliferative activity in words” value (from here on “BT-474 in vitro cell viability at 3 days”) with BT-474 cells is on record as “minimal anti-proliferative activity”. For the same molecule, the “DoxRes HER2 in vitro cell viability at 3 days, anti-proliferative activity in words” value (from here on “DoxRes HER2 in vitro cell viability”) in data set [1] is on record as “less potent than free Ant”. Further, the “MCF7 in vitro cell viability at 3 days, anti-proliferative activity in words” value (shortened to “MCF7 in vitro cell viability at 3 days”) with MCF7 cells is listed as “minial anti-proliferative activity”.

Regarding `COc1cccc2c1C(=O)c1c(O)c3c(c(O)c1C2=O)C[C@@](O)(C(=O)COC1CCCC(COCC(=O)ON2C(=O)CCC2=O)O1)C[C@@H]3O[C@H]1C[C@H]2[C@H](O[C@@H]3[C@@H](OC)OCCN32)[C@H](C)O1` (stereo partly drawn) [Compound 50, 1-({[(6-{2-oxo-2-[(2S,4S)-2,5,12-trihydroxy-7-methoxy-4-{[(1S,3R,4aS,9S,9aR,10aS)-9-methoxy-1-methyloctahydro-1H-pyrano[4′,3′:4,5][1,3]oxazolo[2,3-c][1,4]oxazin-3-yl]oxy}-6,11-dioxo-1,2,3,4,6,11-hexahydrotetracen-2-yl]ethoxy}tetrahydro-2H-pyran-2-yl)methoxy]acetyl}oxy)pyrrolidine-2,5-dione], the “SK-BR-3 in vitro cell viability” value in the data set with SK-BR-3 cells is “minimal anti-proliferative activity”. In addition, in the data set on BT-474 cells, the “BT-474 in vitro cell viability at 3 days” value was “inactive”. In data set [1], the “DoxRes HER2 in vitro cell viability” value is given as “minimal anti-proliferative activity”. Further, the “MCF7 in vitro cell viability at 3 days” value in the data set on MCF7 cells was “inactive”.

Take `CNC(=O)COC1(OCC(=O)[C@]2(O)Cc3c(O)c4c(c(O)c3[C@@H](O[C@H]3C[C@H]5[C@H](O[C@@H]6[C@@H](OC)OCCN65)[C@H](C)O3)C2)C(=O)c2c(OC)cccc2C4=O)CCCCC1` [Compound 2, N-methyl-2-[(1-{2-oxo-2-[(2S,4S)-2,5,12-trihydroxy-7-methoxy-4-{[(1S,3R,4aS,9S,9aR,10aS)-9-methoxy-1-methyloctahydro-1H-pyrano[4′,3′:4,5][1,3]oxazolo[2,3-c][1,4]oxazin-3-yl]oxy}-6,11-dioxo-1,2,3,4,6,11-hexahydrotetracen-2-yl]ethoxy}cyclohexyl)oxy]acetamide]: in data set [2] (pH 5.2, FIG. 1), the “stability at pH 5.2, release of compound of formula (IIA) over time, in words” value is “increased release of the free compound of the formula (IIA)”.

As for `COc1cccc2c1C(=O)c1c(O)c3c(c(O)c1C2=O)C[C@@](O)(/C(CO)=N/NC(=O)CCSSc1ccccn1)C[C@@H]3O[C@H]1C[C@H]2[C@H](O[C@@H]3[C@@H](OC)OCCN32)[C@H](C)O1` [Compound 53, N′-{(1E)-2-hydroxy-1-[(2S,4S)-2,5,12-trihydroxy-7-methoxy-4-{[(1S,3R,4aS,9S,9aR,10aS)-9-methoxy-1-methyloctahydro-1H-pyrano[4′,3′:4,5][1,3]oxazolo[2,3-c][1,4]oxazin-3-yl]oxy}-6,11-dioxo-1,2,3,4,6,11-hexahydrotetracen-2-yl]ethylidene}-3-(pyridin-2-yldisulfanyl)propanehydrazide], the “SK-BR-3 in vitro cell viability” value in the data set with SK-BR-3 cells is “less potent than free Ant”. The “BT-474 in vitro cell viability at 3 days” value in the data set on BT-474 cells was “minimal anti-proliferative activity”. Besides, the “DoxRes HER2 in vitro cell viability” value in data set [1] is listed as “less potent than free Ant”. In addition, in the data set on MCF7 cells, the “MCF7 in vitro cell viability at 3 days” value is listed as “minial anti-proliferative activity”.

Regarding `COc1cccc2c1C(=O)c1c(O)c3c(c(O)c1C2=O)C[C@@](O)(/C(CO)=N/NC(=O)CCSSC[C@H](NC(C)=O)C(=O)O)C[C@@H]3O[C@H]1C[C@H]2[C@H](O[C@@H]3[C@@H](OC)OCCN32)[C@H](C)O1` [Compound 12, N-acetyl-3-({3-[(2E)-2-{2-hydroxy-1-[(2S,4S)-2,5,12-trihydroxy-7-methoxy-4-{[(1S,3R,4aS,9S,9aR,10aS)-9-methoxy-1-methyloctahydro-1H-pyrano[4′,3′:4,5][1,3]oxazolo[2,3-c][1,4]oxazin-3-yl]oxy}-6,11-dioxo-1,2,3,4,6,11-hexahydrotetracen-2-yl]ethylidene}hydrazinyl]-3-oxopropyl}disulfanyl)-L-alanine], the results for the “% release of Compound IIA from the conjugate” value in data set [2] (pH 4.2 buffer solution) and in data set [2] (pH 5.2 buffer solution) were 100% and 90%, respectively.

With `COc1cccc2c1C(=O)c1c(O)c3c(c(O)c1C2=O)C[C@@](O)(C(=O)COC1CCCC(COCC(=O)NCCN2C(=O)C=CC2=O)O1)C[C@@H]3O[C@H]1C[C@H]2[C@H](O[C@@H]3[C@@H](OC)OCCN32)[C@H](C)O1` (some centres unmarked) [Compound 51], the “SK-BR-3 in vitro cell viability” value in the data set with SK-BR-3 cells is “minimal anti-proliferative activity”. Further, the “BT-474 in vitro cell viability at 3 days” value with BT-474 cells was “inactive”. The “DoxRes HER2 in vitro cell viability” value in data set [1] is listed as “minimal anti-proliferative activity”. In addition, the “MCF7 in vitro cell viability at 3 days” value in the data set with MCF7 cells was “inactive”.

As to `COc1cccc2c1C(=O)c1c(O)c3c(c(O)c1C2=O)C[C@@](O)(C(=O)CO)C[C@@H]3O[C@H]1C[C@H](N2CCO[C@H](OC)C2)[C@H](O)[C@H](C)O1` [nemorubicin, (8S,10S)-6,8,11-trihydroxy-10-((2R,4S,5S,6S)-5-hydroxy-4-((S)-2-methoxymorpholino)-6-methyltetrahydro-2H-pyran-2-yloxy)-8-(2-hydroxyacetyl)-1-methoxy-7,8,9,10-tetrahydrotetracene-5,12-dione], the “antitumor activity in in vivo tumor models, in words” value with tumor models was “promising antitumor activity on experimental murine tumors”.
